Columns and labels:
Carbonic anhydrase 2 = Carbonic anhydrase 2 (Homo sapiens, UniProt P00918)
Description: Inhibition of human recombinant isozyme CA2 by CO2 hydration method

Carbonic anhydrase 9 = Carbonic anhydrase 9 (Homo sapiens, UniProt Q16790)
Description: Inhibition of catalytic domain of human recombinant isozyme CA9 by CO2 hydration method

SMILES | Ki (Carbonic anhydrase 2) [nM] | Ki (Carbonic anhydrase 9) [nM]
CC(=O)OC[C@H]1O[C@H](O[C@H]2[C@H](OC(C)=O)[C@@H](OC(C)=O)[C@H](OCc3cn(-c4ccc(S(N)(=O)=O)cc4)nn3)O[C@@H]2COC(C)=O)[C@H](OC(C)=O)[C@@H](OC(C)=O)[C@@H]1OC(C)=O | 7.8 | 
NS(=O)(=O)c1ccc(-n2cc(CO[C@@H]3O[C@H](CO)[C@@H](O[C@H]4O[C@H](CO)[C@@H](O)[C@H](O)[C@H]4O)[C@H](O)[C@H]3O)nn2)cc1 |  | 84
NS(=O)(=O)c1ccc(-n2cc(CO[C@@H]3O[C@H](COCc4ccccc4)[C@@H](OCc4ccccc4)[C@H]3OCc3ccccc3)nn2)cc1 | 7.6 | 
CC(=O)OC[C@H]1O[C@@H](OCc2cn(-c3ccc(S(N)(=O)=O)cc3)nn2)[C@H](OC(C)=O)[C@@H](OC(C)=O)[C@H]1OC(C)=O |  | 9.7
[N-]=[N+]=Nc1ccc(S(N)(=O)=O)cc1 |  | 105
NS(=O)(=O)c1ccc(-n2cc(COC3OC[C@@H](O)[C@@H](O)[C@@H]3O)nn2)cc1 (some centres undefined) | 6.9 | 103
CC(=O)OC[C@H]1O[C@@H](OCc2cn(-c3ccc(S(N)(=O)=O)cc3)nn2)[C@H](OC(C)=O)[C@@H](OC(C)=O)[C@@H]1OC(C)=O |  | 107
NS(=O)(=O)c1ccc(-n2cc(CO[C@@H]3O[C@H](CO)[C@@H](O)[C@H](O)[C@H]3O)nn2)cc1 |  | 101
NS(=O)(=O)c1ccc(-n2cc(CO[C@@H]3O[C@H](CO)[C@H](O)[C@H](O)[C@H]3O)nn2)cc1 | 53 | 120
CC(=O)O[C@H]1[C@H](OC(C)=O)C(OCc2cn(-c3ccc(S(N)(=O)=O)cc3)nn2)OC[C@H]1OC(C)=O (some centres undefined) | 9.3 | 72
NS(=O)(=O)c1ccc(-n2cc(CO[C@@H]3O[C@H](CO)[C@@H](O)[C@H]3O)nn2)cc1 |  | 69

— ChEMBL document CHEMBL1142983, “Carbonic anhydrase inhibitors: inhibition of isozymes I, II, and IX with triazole-linked O-glycosides of benzene sulfonamides” (J Med Chem, 2007)
